{"source": "paper PMC5218480", "about": "(PLoS ONE, 2017)", "tested_on": "MV-4-11 cells", "test": "Gene expression microarray analysis (Affymetrix PrimeView) and GSEA", "assay_type": "cell-based, human", "set-up": "RFU PODN (11730768_x_at) / Fold change /veh PODN (11730768_x_at) / RFU LINC00158 (11744669_a_at) / Fold change /veh LINC00158 (11744669_a_at) / RFU DUSP10 (11751237_a_at) / Fold change /veh DUSP10 (11751237_a_at) / RFU ID3 (11757404_x_at) / Fold change /veh ID3 (11757404_x_at) / RFU PLEKHG5 (11737974_s_at) / Fold change /veh PLEKHG5 (11737974_s_at) / RFU LRRC4B (11730491_at) / Fold change /veh LRRC4B (11730491_at) / RFU GIMAP4 (11747438_a_at) / Fold change /veh GIMAP4 (11747438_a_at) / RFU KRT8 (11758183_x_at) / Fold change /veh KRT8 (11758183_x_at) / RFU CNN1 (11734310_a_at) / Fold change /veh CNN1 (11734310_a_at) / RFU VPS37D (11726825_at) / Fold change /veh VPS37D (11726825_at) / RFU C10orf10 (11716522_x_at) / Fold change /veh C10orf10 (11716522_x_at) / RFU KIR2DL2 /// KIR2DL4 /// KIR2DL5A /// KIR2DL5B /// KIR2DS1 /// KIR2DS2 /// KIR2DS3 /// KIR2DS4 /// KIR3DL3 /// KIR3DL3 /// KIR3DS1 (11738374_at) / Fold change /veh KIR2DL2 /// KIR2DL4 /// KIR2DL5A /// KIR2DL5B /// KIR2DS1 /// KIR2DS2 /// KIR2DS3 /// KIR2DS4 /// KIR3DL3 /// KIR3DL3 /// KIR3DS1 (11738374_at) / RFU C1QL1 (11718748_at) / Fold change /veh C1QL1 (11718748_at) / RFU TMPRSS4 (11747572_a_at) / Fold change /veh TMPRSS4 (11747572_a_at) / RFU HAMP (11756126_x_at) / Fold change /veh HAMP (11756126_x_at) / RFU RNFT2 (11725882_a_at) / Fold change /veh RNFT2 (11725882_a_at) / RFU NR4A2 (11747474_a_at) / Fold change /veh NR4A2 (11747474_a_at) / RFU ABCC12 (11746883_a_at) / Fold change /veh ABCC12 (11746883_a_at) / RFU TMEM136 (11760407_x_at) / Fold change /veh TMEM136 (11760407_x_at) / RFU CLDN22 /// WWC2 (11732394_at) / Fold change /veh CLDN22 /// WWC2 (11732394_at) / RFU HLA-DPB1 (11760878_x_at) / Fold change /veh HLA-DPB1 (11760878_x_at) / RFU SPINT1 (11716480_a_at) / Fold change /veh SPINT1 (11716480_a_at) / RFU GAP43 (11754022_s_at) / Fold change /veh GAP43 (11754022_s_at) / RFU A4GNT (11735810_at) / Fold change /veh A4GNT (11735810_at) / RFU PRB3 (11715151_x_at) / Fold change /veh PRB3 (11715151_x_at) / RFU TUBB4B (11761932_at) / Fold change /veh TUBB4B (11761932_at) / RFU CAPN14 (11732068_a_at) / Fold change /veh CAPN14 (11732068_a_at) / RFU TMCC2 (11721928_a_at) / Fold change /veh TMCC2 (11721928_a_at) / RFU IRGQ (11745062_a_at) / Fold change /veh IRGQ (11745062_a_at) / RFU FAM174B (11720279_a_at) / Fold change /veh FAM174B (11720279_a_at) / RFU TMPRSS4 (11748680_a_at) / Fold change /veh TMPRSS4 (11748680_a_at) / RFU FAM212B (11763350_a_at) / Fold change /veh FAM212B (11763350_a_at) / RFU PLEKHG5 (11743358_a_at) / Fold change /veh PLEKHG5 (11743358_a_at) / RFU ZSCAN30 (11745921_a_at) / Fold change /veh ZSCAN30 (11745921_a_at) / RFU CMKLR1 (11741424_a_at) / Fold change /veh CMKLR1 (11741424_a_at) / RFU LOC101060620 /// MAPK8IP1 (11723275_at) / Fold change /veh LOC101060620 /// MAPK8IP1 (11723275_at) / RFU SPTSSB (11747773_x_at) / Fold change /veh SPTSSB (11747773_x_at) / RFU PRSS12 (11739890_at) / Fold change /veh PRSS12 (11739890_at) / RFU BIN1 (11741810_x_at) / Fold change /veh BIN1 (11741810_x_at) / RFU WNT11 (11732464_a_at) / Fold change /veh WNT11 (11732464_a_at) / RFU C10orf10 (11716521_a_at) / Fold change /veh C10orf10 (11716521_a_at) / RFU C5orf56 (11738089_at) / Fold change /veh C5orf56 (11738089_at) / RFU CYB561 (11721691_x_at) / Fold change /veh CYB561 (11721691_x_at) / RFU ANKRD19P (11752326_a_at) / Fold change /veh ANKRD19P (11752326_a_at) / RFU OR2T12 /// OR2T33 /// OR2T8 (11738714_s_at) / Fold change /veh OR2T12 /// OR2T33 /// OR2T8 (11738714_s_at) / RFU VCAN (11748164_a_at) / Fold change /veh VCAN (11748164_a_at) / RFU JSRP1 (11732532_at) / Fold change /veh JSRP1 (11732532_at) / RFU KRTAP10-11 (11738290_x_at) / Fold change /veh KRTAP10-11 (11738290_x_at) / RFU MYO3A (11730013_a_at) / Fold change /veh MYO3A (11730013_a_at) / RFU EBF3 (11725865_a_at) / Fold change /veh EBF3 (11725865_a_at) / RFU CAMK2N1 (11719241_x_at) / Fold change /veh CAMK2N1 (11719241_x_at) / RFU C5orf56 (11738088_a_at) / Fold change /veh C5orf56 (11738088_a_at) / RFU OLFML3 (11715873_a_at) / Fold change /veh OLFML3 (11715873_a_at) / RFU LOC100653217 /// NTM (11731650_a_at) / Fold change /veh LOC100653217 /// NTM (11731650_a_at) / RFU MAPK11 (11762145_a_at) / Fold change /veh MAPK11 (11762145_a_at) / RFU FIZ1 (11724087_x_at) / Fold change /veh FIZ1 (11724087_x_at) / RFU OASL (11726364_x_at) / Fold change /veh OASL (11726364_x_at) / RFU SOX15 (11748057_x_at) / Fold change /veh SOX15 (11748057_x_at) / RFU CD79A (11719716_a_at) / Fold change /veh CD79A (11719716_a_at) / RFU HIST1H1D (11736915_at) / Fold change /veh HIST1H1D (11736915_at) / RFU CASKIN2 (11723855_a_at) / Fold change /veh CASKIN2 (11723855_a_at) / RFU LOC730098 (11760151_x_at) / Fold change /veh LOC730098 (11760151_x_at) / RFU OR4N2 (11742367_at) / Fold change /veh OR4N2 (11742367_at) / RFU PRRT2 (11749266_a_at) / Fold change /veh PRRT2 (11749266_a_at) / RFU SNX32 (11753110_a_at) / Fold change /veh SNX32 (11753110_a_at) / RFU CDHR5 (11726645_a_at) / Fold change /veh CDHR5 (11726645_a_at) / RFU RCAN1 (11760418_a_at) / Fold change /veh RCAN1 (11760418_a_at) / RFU FAM167A (11723789_a_at) / Fold change /veh FAM167A (11723789_a_at) / RFU FAM26E (11764081_at) / Fold change /veh FAM26E (11764081_at) / RFU ISYNA1 (11749810_s_at) / Fold change /veh ISYNA1 (11749810_s_at) / RFU ACY1 (11761880_at) / Fold change /veh ACY1 (11761880_at) / RFU 11764098_at / Fold change /veh 11764098_at / RFU SAMD14 (11745864_x_at) / Fold change /veh SAMD14 (11745864_x_at) / RFU NPB (11741838_a_at) / Fold change /veh NPB (11741838_a_at) / RFU TMPRSS6 (11731388_a_at) / Fold change /veh TMPRSS6 (11731388_a_at) / RFU KRTAP10-2 (11738614_at) / Fold change /veh KRTAP10-2 (11738614_at) / RFU ARHGAP8 /// PRR5-ARHGAP8 (11727945_x_at) / Fold change /veh ARHGAP8 /// PRR5-ARHGAP8 (11727945_x_at) / RFU KRTAP5-7 /// NADSYN1 (11734609_at) / Fold change /veh KRTAP5-7 /// NADSYN1 (11734609_at) / RFU RASL12 (11751679_a_at) / Fold change /veh RASL12 (11751679_a_at) / RFU CDKN2B (11736163_a_at) / Fold change /veh CDKN2B (11736163_a_at) / RFU PRF1 (11729649_at) / Fold change /veh PRF1 (11729649_at) / RFU, ZNF638 /// ZNF638-IT1 / Fold change vs veh, ZNF638 /// ZNF638-IT1 / RFU, PANK3 / Fold change vs veh, PANK3 / RFU, SH3YL1 / Fold change vs veh, SH3YL1 / RFU, ZEB2 / Fold change vs veh, ZEB2 / RFU, NRIP1 / Fold change vs veh, NRIP1 / RFU, PTTG1IP / Fold change vs veh, PTTG1IP / RFU, CAPN2 / Fold change vs veh, CAPN2 / RFU, MED14 / Fold change vs veh, MED14 / RFU, SNORA58 / Fold change vs veh, SNORA58 / RFU, C1orf63 / Fold change vs veh, C1orf63 / RFU, LRRFIP1 / Fold change vs veh, LRRFIP1 / RFU, NDUFAF7 / Fold change vs veh, NDUFAF7 / RFU, SLC12A2 / Fold change vs veh, SLC12A2 / RFU, IBTK / Fold change vs veh, IBTK / RFU, ESF1 / Fold change vs veh, ESF1 / Fold change vs veh, TMEM50B / RFU, TAOK1 / Fold change vs veh, TAOK1 / RFU, ACBD3 / Fold change vs veh, ACBD3 / RFU, TMA16 / Fold change vs veh, TMA16 / RFU, RWDD3 / Fold change vs veh, RWDD3 / RFU, BCAT1 / Fold change vs veh, BCAT1 / RFU, EDEM3 / Fold change vs veh, EDEM3 / RFU, TMEM33 / Fold change vs veh, TMEM33 / RFU, WDR75 / Fold change vs veh, WDR75 / RFU, AHCTF1 / Fold change vs veh, AHCTF1 / RFU, TFRC / Fold change vs veh, TFRC / RFU, ZDHHC17 / Fold change vs veh, ZDHHC17 / RFU, NOM1 / Fold change vs veh, NOM1 / RFU, ARL8B / Fold change vs veh, ARL8B / RFU, ZBTB11 / Fold change vs veh, ZBTB11 / RFU, TAMM41 / Fold change vs veh, TAMM41 / RFU, KIAA1704 /// LOC100996395 / Fold change vs veh, KIAA1704 /// LOC100996395 / RFU, ING1 / Fold change vs veh, ING1 / RFU, TRMT61B / Fold change vs veh, TRMT61B / RFU, FUBP3 / Fold change vs veh, FUBP3 / RFU, TP53 / Fold change vs veh, TP53 / RFU, TNKS2 / Fold change vs veh, TNKS2 / RFU, ZFP14 / Fold change vs veh, ZFP14 / RFU, ACTR2 / Fold change vs veh, ACTR2 / RFU, PPP3R1 / Fold change vs veh, PPP3R1 / RFU, PIK3R1 / Fold change vs veh, PIK3R1 / RFU, HNRNPA1 / Fold change vs veh, HNRNPA1 / RFU, RNF170 / Fold change vs veh, RNF170 / RFU, ZNF28 / Fold change vs veh, ZNF28 / RFU, RNGTT / Fold change vs veh, RNGTT / RFU, OGT / Fold change vs veh, OGT / RFU, BRD1 / Fold change vs veh, BRD1 / RFU, MARS / Fold change vs veh, MARS / RFU, ZNF655 / Fold change vs veh, ZNF655 / RFU, FAHD1 / Fold change vs veh, FAHD1 / RFU, BDP1 / Fold change vs veh, BDP1 / RFU, LRRCC1 / Fold change vs veh, LRRCC1 / RFU, ARID1A / Fold change vs veh, ARID1A / RFU, ZNF146 / Fold change vs veh, ZNF146 / RFU, ZNF330 / Fold change vs veh, ZNF330 / RFU, GPN3 / Fold change vs veh, GPN3 / RFU, C9orf123 / Fold change vs veh, C9orf123 / RFU, N4BP2L2 / Fold change vs veh, N4BP2L2 / RFU, ARFIP1 / Fold change vs veh, ARFIP1 / RFU, FAM179B / Fold change vs veh, FAM179B / RFU, BCL10 / Fold change vs veh, BCL10 / RFU, UHRF1BP1L / Fold change vs veh, UHRF1BP1L / RFU, BET1 / Fold change vs veh, BET1 / RFU, CNOT2 / Fold change vs veh, CNOT2 / RFU, ZNF268 / Fold change vs veh, ZNF268 / Fold change vs veh, ZNF507 / RFU, DGCR2 / Fold change vs veh, DGCR2 / RFU, WDSUB1 / Fold change vs veh, WDSUB1 / Fold change vs veh, HSP90B1 /// MIR3652 / RFU, ADSS / Fold change vs veh, ADSS / RFU, GK / Fold change vs veh, GK / RFU, ZNF148 / Fold change vs veh, ZNF148 / RFU, TAF9 / Fold change vs veh, TAF9 / RFU, SLC1A5 / Fold change vs veh, SLC1A5 / RFU, SLMO2 / Fold change vs veh, SLMO2 / RFU, ABCC4 / Fold change vs veh, ABCC4 / RFU, LOC101060439 /// RAP1B / Fold change vs veh, LOC101060439 /// RAP1B / RFU, RFX7 / Fold change vs veh, RFX7 / RFU, GTPBP10 / Fold change vs veh, GTPBP10 / RFU, CNEP1R1 / Fold change vs veh, CNEP1R1 / RFU, BIVM-ERCC5 /// ERCC5 / Fold change vs veh, BIVM-ERCC5 /// ERCC5 / RFU, ILF3 / Fold change vs veh, ILF3 / RFU 11762660_at / Fold change /veh 11762660_at / RFU VCAN (11757783_s_at) / Fold change /veh VCAN (11757783_s_at) / RFU DDX43 (11728927_at) / Fold change /veh DDX43 (11728927_at) / RFU KRT8 (11758188_x_at) / Fold change /veh KRT8 (11758188_x_at) / RFU NKD1 (11759106_at) / Fold change /veh NKD1 (11759106_at) / RFU SRD5A1 (11742802_a_at) / Fold change /veh SRD5A1 (11742802_a_at) / RFU TPSAB1 /// TPSB2 (11721975_s_at) / Fold change /veh TPSAB1 /// TPSB2 (11721975_s_at) / RFU GSTM3 (11746129_a_at) / Fold change /veh GSTM3 (11746129_a_at) / RFU IL23R (11737362_x_at) / Fold change /veh IL23R (11737362_x_at) / RFU TMEM51 (11727254_a_at) / Fold change /veh TMEM51 (11727254_a_at) / RFU PIWIL2 (11732686_x_at) / Fold change /veh PIWIL2 (11732686_x_at) / RFU ORM1 (11744905_x_at) / Fold change /veh ORM1 (11744905_x_at) / RFU CCDC152 (11743942_at) / Fold change /veh CCDC152 (11743942_at) / RFU ECM1 (11717891_a_at) / Fold change /veh ECM1 (11717891_a_at) / RFU IL23R (11748794_a_at) / Fold change /veh IL23R (11748794_a_at) / RFU TNFAIP8L3 (11732012_x_at) / Fold change /veh TNFAIP8L3 (11732012_x_at) / RFU MBOAT4 (11741988_at) / Fold change /veh MBOAT4 (11741988_at) / RFU 11764193_at / Fold change /veh 11764193_at / RFU TMEM53 (11763286_at) / Fold change /veh TMEM53 (11763286_at) / RFU MAGEB2 (11727129_at) / Fold change /veh MAGEB2 (11727129_at) / RFU TMEM200A (11744735_a_at) / Fold change /veh TMEM200A (11744735_a_at) / RFU CCDC152 (11751479_a_at) / Fold change /veh CCDC152 (11751479_a_at) / RFU FAM211A (11726209_a_at) / Fold change /veh FAM211A (11726209_a_at) / RFU RGS16 (11746705_a_at) / Fold change /veh RGS16 (11746705_a_at) / RFU VCAN (11755009_s_at) / Fold change /veh VCAN (11755009_s_at) / RFU RHOB (11743442_s_at) / Fold change /veh RHOB (11743442_s_at) / RFU RGS16 (11720943_a_at) / Fold change /veh RGS16 (11720943_a_at) / RFU RGS16 (11720944_at) / Fold change /veh RGS16 (11720944_at) / RFU, VPS4B / Fold change vs veh, VPS4B / RFU, CREB1 / Fold change vs veh, CREB1 / RFU, DNAJC13 / Fold change vs veh, DNAJC13 / RFU, GNAQ / Fold change vs veh, GNAQ / RFU, CDK5R1 / Fold change vs veh, CDK5R1 / RFU, ZRANB3 / Fold change vs veh, ZRANB3 / RFU, CUL4A / Fold change vs veh, CUL4A / RFU, CCNY / Fold change vs veh, CCNY / RFU, UFL1 / Fold change vs veh, UFL1 / RFU, COG3 / Fold change vs veh, COG3 / RFU, DIAPH2 / Fold change vs veh, DIAPH2 / RFU, SKA2 / Fold change vs veh, SKA2 / RFU, AFF3 / Fold change vs veh, AFF3 / RFU, LMF1 / Fold change vs veh, LMF1 / RFU, IPO11 / Fold change vs veh, IPO11 / RFU, DFFB / Fold change vs veh, DFFB / RFU, FOXP1 / Fold change vs veh, FOXP1 / RFU, CARD8 / Fold change vs veh, CARD8 / RFU, STRN3 / Fold change vs veh, STRN3 / RFU, ADK / Fold change vs veh, ADK / RFU, RASSF2 / Fold change vs veh, RASSF2 / RFU, WIPF1 / Fold change vs veh, WIPF1 / RFU, LARP1B / Fold change vs veh, LARP1B / RFU, RASA1 / Fold change vs veh, RASA1 / RFU, RB1 / Fold change vs veh, RB1 / RFU, PPFIA1 / Fold change vs veh, PPFIA1 / RFU, MAT2A / Fold change vs veh, MAT2A / RFU, CCT5 / Fold change vs veh, CCT5 / RFU, WDR92 / Fold change vs veh, WDR92 / RFU, CUX1 / Fold change vs veh, CUX1 / RFU, TTC7A / Fold change vs veh, TTC7A / RFU, TMEM135 / Fold change vs veh, TMEM135 / RFU, DEPTOR / Fold change vs veh, DEPTOR / RFU, CPM / Fold change vs veh, CPM / RFU, DNAJB6 / Fold change vs veh, DNAJB6 / RFU, CACNA2D3 / Fold change vs veh, CACNA2D3 / RFU, DTX4 / Fold change vs veh, DTX4 / RFU, TFCP2 / Fold change vs veh, TFCP2 / RFU, GMCL1 /// GMCL1P1 / Fold change vs veh, GMCL1 /// GMCL1P1 / RFU, AEBP2 / Fold change vs veh, AEBP2 / RFU, SNHG1 /// SNORD22 /// SNORD25 /// SNORD26 /// SNORD27 /// SNORD28 /// SNORD29 /// SNORD31 / Fold change vs veh, SNHG1 /// SNORD22 /// SNORD25 /// SNORD26 /// SNORD27 /// SNORD28 /// SNORD29 /// SNORD31 / Fold change (Aza/veh), C12orf56 (ProbeSet 11735607_a_at) / Fold change (ACY-1035/veh), C12orf56 (ProbeSet 11735607_a_at) / Fold change (Aza/veh), FGFR1OP (ProbeSet 11751329_s_at) / Fold change (ACY-1035/veh), FGFR1OP (ProbeSet 11751329_s_at) / Fold change (Aza/veh), VPS36 (ProbeSet 11739960_a_at) / Fold change (ACY-1035/veh), VPS36 (ProbeSet 11739960_a_at) / RFU SYPL1 (11715823_x_at) / Fold change /veh SYPL1 (11715823_x_at) / RFU IGFBP7 (11715501_s_at) / Fold change /veh IGFBP7 (11715501_s_at) / RFU REEP3 (11722064_at) / Fold change /veh REEP3 (11722064_at) / RFU IGLL1 (11728026_x_at) / Fold change /veh IGLL1 (11728026_x_at): dose or concentration left out as unconfirmed", "conditions": "MV-4-11 cells, 48 hours"}
{"smiles": "Nc1ccc(-c2cccs2)cc1NC(=O)c1ccc2c(c1)cc(C1CC1)n2CCN1CCOCC1", "note": "[ACY-1035]", "values": [{"measurement": "RFU ABCC12 (11746883_a_at)", "result": 8.23, "unit": "RFU"}]}
